# Measurements as given in patent publication US8163870B2, “Channel forming peptides” (Kansas State University Research Foundation, priority 2000, dated 2012).
# Values joined by “and” are separate entries in the source; they are usually repeats but may differ in a detail not shown here. Equal entries are not always repeated. Non-standard residues stand in square brackets, D forms with d. No end group written: not given here. DAP = diaminopimelic acid
# System: MDCK cells
# Assay type: cell-based, canine
# Settings: MDCK monolayers, modified Hill equation fit; listed as SEQ ID NO. 27; read-out: half maximal effect on Isc (EC50 / K1/2)
# Excerpt: Cell culture: MDCK cells were a generous gift of Dr. Lawrence Sullivan (Kansas University Medical Center, Kansas City, Kans.). T84 cells were obtained from Dr. Daniel Devor (University of Pittsburgh, Pittsburgh, Pa.). MDCK and T84 cells were maintained with similar culture procedures. The culture medium was a 1:1 mixture of DMEM and Ham's F-12 (Gibco BRL, Grand Island, N.Y.) supplemented with 5% heat inactivated fetal bovine serum (BioWhittaker, Walkersville, Md.), and 1% penicillin and streptomycin (Gibco BRL). Cells were grown in plastic culture flasks in a humidified environment with 5% CO2 at 37° C. and passaged every 5-7 days. For Ussing chamber experiments, cells were plated on 1.13 cm^2 permeable supports (Snapwell™, Costar®, Cambridge, Mass.) at a density of approximately 1×10^6 cells/well and incubated in DMEM/F-12 supplemented with FBS and antibiotics (changed every other day) for 2-3 weeks prior to being mounted in modified Ussing flux chambers.
# To form monolayers, the cells were plated onto the upper surface of a permeable membrane that forms the bottom of a plastic well. Two types were used. One was the Transwell™ insert (Costar®, Cambridge, Mass.) supported in a six-well tissue culture plate and the other type was the Snapwell™ (Costar®, Cambridge, Mass.). During incubation, the medium was replaced at 48-72 hour intervals. Confluent monolayers formed within 72 hours. Experiments were performed on the monolayers 6-9 days after the initial plating. Net fluid secretion responses were optimal after six days.
# Solutions: Ringer solution was made fresh daily. The final concentration (in mM) was 120 NaCl, 25 NaHCO3 3.3 KH2HPO4, 0.8 K2HPO4, 1.2 MgCl2, 1.2 CaCl2, (290±2 mOsmol). All components of the Ringer solution were from Sigma (St. Louis, Mo.).
# (§1) Epithelial electrical measurements: Transepithelial ion transport was evaluated in a modified Ussing chamber (Model DCV9, Navicyte, San Diego, Calif.). The Ussing chamber's fluid resistance compensation was completed in Ringer solution (see below). For electrical measurements cell monolayers were bathed in Ringer solution maintained at 37° C. and continuously bubbled with 5% CO2:95% O2. The transepithelial membrane potential (Vte) was clamped to zero and the transepithelial short circuit current (Isc), an indicator of net ion transport, was measured continuously with a voltage clamp apparatus (Model 558C, University of Iowa, Department of Bioengineering, Iowa City, Iowa). Data were digitally acquired at 1 Hz with a Macintosh computer (Apple Computer, Cuppertino, Calif.) using Aqknowledge software (ver. 3.2.6, BIOPAC Systems, Santa Barbara, Calif.) with an MP100A-CE interface.
# as §1, with “Transepithelial” for “Epithelial electrical measurements: Transepithelial”, “(composition (in mM) was 120 NaCl, 25 NaHCO3 3.3 KH2HPO4, 0.8 K2HPO4, 1.2 MgCl2, 1.2 CaCl2).” for “(see below).”
# MDCK cell monolayers (in the presence of 1-EBIO to maximize basolateral membrane K^+ conductance) were exposed on the apical aspect to escelating peptide concentrations. Maximal change in Isc (relative to the Isc prior to peptide exposure) was recorded following each increment in apical peptide concentration. […]
row,Compound,EC50
1,"KKKKAARVGLGITTVLVTTIGLGVRAA [SEQ ID No. 27, KKKKAARVGL GITTVLVTTI GLGVRAA]",50 µM and ~40 µM

# Same assay, conditions: MDCK monolayers, modified Hill equation fit; read-out: half maximal effect on Isc (EC50 / K1/2)
row,Compound,EC50
1,"KKKKAARVGLGITTVLVTTIGLGVRAA [SEQ ID No. 27, KKKKAARVGL GITTVLVTTI GLGVRAA]",40 µM

# Same assay, conditions: MDCK pretreatment, basal conditions
row,Compound,effect on ISC or gTE
1,"CCn1c(=O)[nH]c2ccccc21 [1-EBIO, reference compound]",no effect

# Same assay, conditions: peptide at 100 μM
row,Compound,Activity profile in MDCK cells
1,KKKKAARVGLGITTVVTTIGLGVRAA (KKKKAARVGLGITTVVTTIGLGVRAA; Modified Homo sapiens) [SEQ ID No. 28],17.3 at 100 μM μA/cm2

# Same assay, conditions: peptide at 250 μM
row,Compound,Activity profile in MDCK cells
1,KKKKPARVGLGITTVLAARVGLGITTV (KKKKPARVGLGITTVLAARVGLGITTV; Modified Homo sapiens) [SEQ ID No. 21],8.0 at 250 μM μA/cm2

# Same assay, conditions: peptide at 300 μM
row,Compound,Activity profile in MDCK cells
1,KKKKARSGSSQTTMTLVTTIGLGVRAA (KKKKARSGSSQTTMTLVTTIGLGVRAA; Modified Homo sapiens) [SEQ ID No. 4],18.7 at 300 μM μA/cm2

# Same assay, conditions: peptide at 500 μM
row,Compound,Activity profile in MDCK cells
1,ARSGSSQTTM T (ARSGSSQTTMT; Modified Homo sapiens) [SEQ ID No. 51],<1.0 at 500 μM μA/cm2
2,AARVGLGITT V (AARVGLGITTV; Modified Homo sapiens) [SEQ ID No. 52],<1.0 at 500 μM μA/cm2
3,KKKKARSGSSQTTMTLARSGSSQTTMT (KKKKARSGSSQTTMTLARSGSSQTTMT; Modified Homo sapiens) [SEQ ID No. 25],<1.0 at 500 μM μA/cm2
4,KKKKPARVGLGITTVLTMTTQS (KKKKPARVGLGITTVLTMTTQS; Modified Homo sapiens) [SEQ ID No. 34],20.3 at 500 μM μA/cm2
5,VTTIGLGVRA P (VTTIGLGVRAP; Modified Homo sapiens) [SEQ ID No. 50],<1.0 at 500 μM μA/cm2
6,KKKKVTTIGLGVRAPLARSGSSQTTMT [SEQ ID No. 8],<1.0 at 500 μM μA/cm2
7,PARVGLGITT V (PARVGLGITTV; Modified Homo sapiens) [SEQ ID No. 48],<1.0 at 500 μM μA/cm2
8,KKKKPARVGLGITTVLPARVGLGITTV (KKKKPARVGLGITTVLPARVGLGITTV; Modified Homo sapiens) [SEQ ID No. 20],<1.0 at 500 μM μA/cm2
9,KKKKARSGSSQTTMTLTMTTQSSGSRA (KKKKARSGSSQTTMTLTMTTQSSGSRA; Modified Homo sapiens) [SEQ ID No. 23],4.2 at 500 μM μA/cm2
10,KKKKPARVGL GITTVLTMTT (KKKKPARVGLGITTVLTMTT; Modified Homo sapiens) [SEQ ID No. 36],8.8 at 500 μM μA/cm2
11,LGITTVLTMTTQSSGSRAKKKK (LGITTVLTMTTQSSGSRAKKKK; Modified Homo sapiens) [SEQ ID No. 43],<1.0 at 500 μM μA/cm2
12,GLGITTVLTMTTQSSGSRAKKKK (GLGITTVLTMTTQSSGSRAKKKK; Modified Homo sapiens) [SEQ ID No. 42],3.3 at 500 μM μA/cm2
13,KKKKTMTTQSSGSRALVTTIGLGVRAA (KKKKTMTTQSSGSRALVTTIGLGVRAA; Modified Homo sapiens) [SEQ ID No. 7],<1.0 at 500 μM μA/cm2
14,KKKKPARVGL GITTVLTMT (KKKKPARVGLGITTVLTMT; Modified Homo sapiens) [SEQ ID No. 37],8.7 at 500 μM μA/cm2
15,RVGLGITTVLTMTTQSSGSRAKKKK (RVGLGITTVLTMTTQSSGSRAKKKK; Modified Homo sapiens) [SEQ ID No. 41],6.3 at 500 μM μA/cm2
16,KKKKPARVGLGITTVLTMTTRS (KKKKPARVGLGITTVLTMTTRS; Modified Homo sapiens) [SEQ ID No. 13],24.0 at 500 μM μA/cm2
17,ITTVLTMTTQ SSGSRAKKKK (ITTVLTMTTQSSGSRAKKKK; Modified Homo sapiens) [SEQ ID No. 45],<1.0 at 500 μM μA/cm2
18,TMTTQSSGSR A (TMTTQSSGSRA; Modified Homo sapiens) [SEQ ID No. 49],<1.0 at 500 μM μA/cm2

row,Compound,Activity profile in MDCK cells
1,KKKKPARVGL GITTVLTRTT (DAP)S (KKKKPARVGLGITTVLTRTT[DAP]S) [SEQ ID No. 32],24.0 at 500 μM μA/cm2
2,KKKKTMTTQSSGSRALTMTTQSSGSRA (KKKKTMTTQSSGSRALTMTTQSSGSRA; Modified Homo sapiens) [SEQ ID No. 6],<1.0 at 500 μM μA/cm2
3,KKKKPARVGLGITTVWTMTTQSSGSRA (KKKKPARVGLGITTVWTMTTQSSGSRA; Modified Homo sapiens) [SEQ ID No. 10],20.0 at 500 μM μA/cm2
4,KKKKPARVGLGITTVLTMTTQ (KKKKPARVGLGITTVLTMTTQ; Modified Homo sapiens) [SEQ ID No. 35],13.1 at 500 μM μA/cm2
5,ARSGSSQTTMTLVTTIGLGVRAPKKKK (ARSGSSQTTMTLVTTIGLGVRAPKKKK; Modified Homo sapiens) [SEQ ID No. 17],3.6 at 500 μM μA/cm2
6,VTTIGLGVRA A (VTTIGLGVRAA; Modified Homo sapiens) [SEQ ID No. 53],<1.0 at 500 μM μA/cm2
7,KKKKPARVGLGITTVLTMTTQSSGSRAKKKK (KKKKPARVGLGITTVLTMTTQSSGSRAKKKK; Modified Homo sapiens) [SEQ ID No. 47],5.0 at 500 μM μA/cm2
8,KKKKPARVGL GITTVLT (KKKKPARVGLGITTVLT; Modified Homo sapiens) [SEQ ID No. 39],1.8 at 500 μM μA/cm2
9,KKKKPARVGL GITTVLTM (KKKKPARVGLGITTVLTM; Modified Homo sapiens) [SEQ ID No. 38],6.8 at 500 μM μA/cm2
10,KKKKTMTTQSSGSRALARSGSSQTTMT (KKKKTMTTQSSGSRALARSGSSQTTMT; Modified Homo sapiens) [SEQ ID No. 24],<1.0 at 500 μM μA/cm2
11,GITTVLTMTTQSSGSRAKKKK (GITTVLTMTTQSSGSRAKKKK; Modified Homo sapiens) [SEQ ID No. 44],<1.0 at 500 μM μA/cm2
12,KKKKPARVGLGITTVLTRTTQS (KKKKPARVGLGITTVLTRTTQS; Modified Homo sapiens) [SEQ ID No. 15],<1.0 at 500 μM μA/cm2
13,KKKKPARVGLGITTVLTMTTQSSGS (KKKKPARVGLGITTVLTMTTQSSGS; Modified Homo sapiens) [SEQ ID No. 33],18.4 at 500 μM μA/cm2
14,KKKKVTTIGLGVRAPLPARVGLGITTV (KKKKVTTIGLGVRAPLPARVGLGITTV; Modified Homo sapiens) [SEQ ID No. 22],<1.0 at 500 μM μA/cm2
15,KKKKPARVGLGITTVLTMTTQR (KKKKPARVGLGITTVLTMTTQR; Modified Homo sapiens) [SEQ ID No. 14],20.0 at 500 μM μA/cm2
16,KKKKPARVGL GITTVL (KKKKPARVGLGITTVL; Modified Homo sapiens) [SEQ ID No. 40],1.5 at 500 μM μA/cm2
17,LTMTTQSSGS RAKKKK (LTMTTQSSGSRAKKKK; Modified Homo sapiens) [SEQ ID No. 46],<1.0 at 500 μM μA/cm2
